# Laboratory results published in patent publication US20260053790A1, “TREATMENTS FOR CONDITIONS INVOLVING INCREASED IL-6 LEVELS” (X4 Pharmaceuticals, Inc., priority 2022, published 2026).
# Assays:
# WM cells [1] = experiment: Soluble IL-6 treatment of WM cells in the absence of BMSC: CXCR4 expression and IgM secretion; assay type: cell-based; details: blockade of IL-6/IL6R/STAT3 axis, FIG. 3
# From the text: FIG. 3: Even in the Absence of BMSC, Soluble IL-6 Upregulates CXCR4 Expression & IgM Secretion in WM Cells; which is Prevented by Blockade of IL-6/IL6R/STAT3 Axis. BP-1-102 is a STAT3 inhibitor.
# [2] = Solubility of mavorixafor by pH and in water; assay type: physicochemical
# Procedure: Mavorixafor (formerly designated X4P-001 and AMD11070) is a CXCR4 antagonist, with molecular formula C21H27N5; molecular weight 349.48 amu; and appearance as a white to pale yellow solid. Solubility: freely soluble in the pH range 3.0 to 8.0 (>100 mg/mL), sparingly soluble at pH 9.0 (10.7 mg/mL) and slightly soluble at pH 10.0 (2.0 mg/mL). […] Melting point: 108.9° C.
# in vivo = details: Terminal half-life
# Procedure: In certain embodiments, the dosage composition may be provided twice a day in divided dosage, approximately 12 hours apart. In other embodiments, the dosage composition may be provided once daily. […] Dosage for oral administration may be from about 100 mg to about 1200 mg once or twice per day.
# WM cells [3] = experiment: Co-culture of BMSC with WM cells: BM stroma-induced IgM hypersecretion; assay type: cell-based; details: FIG. 2
# IL-6 = IL-6 overexpression and hypersecretion (co-culture of BMSC with WM cells); assay type: cell-based; details: mavorixafor as a single agent
Compound,Soluble IL-6-induced upregulation of CXCR4 expression in WM cells (WM cells [1]),Soluble IL-6-induced upregulation of IgM secretion in WM cells (WM cells [1]),"solubility ([2]; aqueous buffer, pH range 3.0 to 8.0 (freely soluble)) [mg/mL]",Solubility in water ([2]; water),half-life (in vivo) [h],Bone marrow stroma-induced IgM hypersecretion in WM cells (WM cells [3]),Overexpression and hypersecretion of IL-6 (IL-6)
CN(CC(=O)N(Cc1ccc(C2CCCCC2)cc1)c1ccc(C(=O)O)c(O)c1)S(=O)(=O)c1c(F)c(F)c(F)c(F)c1F [BP-1-102],Prevented,Prevented,–,–,–,–,–
"NCCCCN(Cc1nc2ccccc2[nH]1)[C@H]1CCCc2cccnc21 [Mavorixafor, mavorixafor]",–,–,> 100,only slightly soluble,12 to 24,blocks,significantly reduces
